Measurements published in patent publication US11613780B2, “Materials and methods for identifying gyrase inhibitors” (THE FLORIDA INTERNATIONAL UNIVERSITY BOARD OF TRUSTEES, priority 2016, dated 2023).
Entries after “also recorded” stand apart in the source; their conditions may differ.

Columns and labels:
[1] = system: expression of firefly luciferase under the control of the PgyrA (screen for DNA gyrase inhibitors); test: Firefly luciferase expression from PgyrA divergently coupled to IPTG-induced PT7Al/O4 (luciferase assay); assay type: cell-based, E. coli; settings: for expression of firefly luciferase (other antibiotics): FIG. 12F, antibiotics that are not gyrase inhibitors; for expression of firefly luciferase of FL #1181: FL #1181, in the presence of IPTG, FIG. 12E
Protocol: (§1) FIGS. 5A-5D. (FIG. 5A) and (FIG. 5B) Inhibition of the supercoiling-sensitive PgyrA by E. coli […] on the chromosome. E. coli strains FL1181 (MG1655(DE3)ΔlacZ attTn7::PT7Al/O4lacZ-PgyrAluc; squares) and FL1182 (VS111(DE3)ΔlacZ attTn7::PT7Al/O4lacZ-PgyrAluc; circles) were used. The activities of β-galactosidase (Miller's units) and firefly luciferase (RLU) were plotted against the IPTG concentration added to the cell cultures. […] Overnight cell cultures were diluted 100-fold and grown until OD600 reached 0.2. Then 0.5 mM of IPTG and various concentrations of ciprofloxacin or other antibiotics were added to the cell cultures. After additional 30 min incubation, the activities of β-galactosidase and firefly luciferase were measured as described under Materials and Methods. (FIG. 5C) Ciprofloxacin inhibited the expression of β-galactosidase.
Briefly, a 5.1 kb DNA fragment carrying the divergently coupled PgyrA and PT7Al/O4 promoters with the luc and lacZ genes was inserted to the attTn7 site of the E. coli chromosome (84 min of the chromosome) to generate FL1181 and FL1182. In both strains, the IPTG-inducible PT7Al/O4 controls the expression of β-galactosidase. Using similar approach, the following E. coli strains were generated: FL1181, FL1182, FL1198, FL1199, FL1200, FL1202, FL1203, and FL1204.
Luciferase Assay was used to verify the expression of luciferase in various E. coli strains carrying different plasmid DNA templates. Briefly, E. coli cells carrying different plasmids were grown overnight in LB. Antibiotics were added to LB as needed. The overnight culture was then diluted (1:100) in fresh LB in the presence of different concentrations of IPTG, and grown until the OD600 nm reached approximately 0.5. Next, 50 μl of cells were mixed with 10 μl of 1 M K2HPO4 (pH 7.8) and 20 mM EDTA, quickly frozen in liquid nitrogen for 3 min, and equilibrated to room temperature for 30 min to yield about 60 μl of cell lysate. Then, the cell lysate was added with 300 μl freshly prepared lysis mix containing 1×cell culture lysis reagent (CCLR), 1.25 mg/ml lysozyme, and 2.5 mg/ml BSA, and incubated for 10 min at room temperature. Finally, 100 μl of Luciferase Assay Reagent (Promega Corporation, Madison, Wis.) was added to 20 μl of the cell lysate and used for light measurement by using a Promega GloMax 20/20 Single-Tube Luminometer.

[2] = system: expression of β-galactosidase (lacZ) under the control of PT7Al/O4; test: β-galactosidase expression from PT7Al/O4 (Miller's assay); assay type: cell-based, E. coli; settings: FL1181 and FL1182, 0.5 mM IPTG, 30 min incubation; FIG. 5C
Protocol: as §1, with “β-galactosidase. […]” for “β-galactosidase.”
The expression level of β-galactosidase was measured by Miller's assay as described by Miller et al. Briefly, 100 mL of LB was inoculated with 1 mL of overnight bacterial cell culture until OD600 reaches about 0.2. […] After cell debris was removed by centrifugation at 13,000 rpm for 1 min, OD420 and OD550 were measured in a Cary 50 spectrophotometer. β-Galactosidase activities (E) were calculated using the following equation: […]

Structure (SMILES): CC1(C)S[C@@H]2[C@H](NC(=O)[C@H](N)c3ccccc3)C(=O)N2[C@H]1C(=O)O [ampicillin]
- expression of firefly luciferase (other antibiotics) [1]: inhibited; also recorded: inhibition

Structure (SMILES): CN[C@@H]1[C@H](O)[C@H](NC)[C@H]2O[C@@]3(O)C(=O)C[C@@H](C)O[C@H]3O[C@@H]2[C@H]1O [spectinomycin]
- expression of firefly luciferase (other antibiotics) [1]: inhibition

Structure (SMILES): O=C(O)c1cn(C2CC2)c2cc(N3CCNCC3)c(F)cc2c1=O [ciprofloxacin]
- expression of β-galactosidase [2]: inhibited
- expression of firefly luciferase ([1]; E. coli strains FL1181 and FL1182 (divergently coupled PgyrA and PT7Al/O4), in the presence of IPTG (0.5 mM), 30 min incubation, FIG. 5D): substantially increased; also recorded: greatly enhanced; also recorded: specifically enhanced
- expression of firefly luciferase of FL #1181 [1]: stimulation

Structure (SMILES): CCN1CCN(c2cc3c(cc2F)c(=O)c(C(=O)O)cn3C2CC2)CC1 [enrofloxacin]
- expression of firefly luciferase of FL #1181 [1]: stimulation

Structure (SMILES): CCn1cc(C(=O)O)c(=O)c2cc(F)c(N3CCNCC3)cc21 [norfloxacin]
- expression of firefly luciferase of FL #1181 [1]: stimulation
